PMC10144566, “Pharmacokinetic Profile Evaluation of Novel Combretastatin Derivative, LASSBio-1920, as a Promising Colorectal Anticancer Agent” (Pharmaceutics, 2023)

Assays:
[1] = biological target: T1, EGFR-wt (Homo sapiens, UniProt P00533); assay: Inhibition of EGFR, LANCE TR-FRET assay; format: biochemical; conditions: 1 and 10 µM (either concentration); data not shown
T1 construct: Eurofins
Method: Inhibition of EGFR assay: The inhibition of EGFR activity was determined using the LANCE®TR-FRET (time-resolved fluorescence energy transfer) test according to the protocol described by Weber et al. (1984). The reference compound (PD153035) was tested simultaneously with LASSBio-1920 (1 and 10 µM). The LASSBio-1920 concentrations were determined based on IC50 values and the compound’s aqueous solubility. The experiment was carried out in agreement with Eurofins®’s Standard Operating Procedure.

[2] = biological target: human CK-1δ protein kinase (Homo sapiens, UniProt P48730); assay: Inhibition of human CK-1δ protein kinase (Kinase-Glo); format: biochemical; conditions: data not shown, read-out: inhibitory activity against human CK-1δ protein kinase
Method: Inhibition of human CK-1δ protein kinase assay: Test compound (10 µL), CK-1δ enzyme (10 µL), and buffer solution (20 µL) were added to each well of a 96-well plate containing 0.1% casein as substrate and 4 µM ATP. The assay buffer solution constituents were 50 mM HEPES at pH 7.5, 0.01% Brij-35, […], 1 mM EDTA, and 0.01% NaN3. The final concentrations of DMSO were limited to 1%. After 60 min of incubation at 30 °C, the reaction was stopped by the addition of 40 µL of Kinase-Glo®. The luminescence was measured after 10 min using a Fluostar Optima multimode reader (BMG Labtechnologies GmbH, Offenburg, Germany). First, LASSBio-1920 was tested at concentrations of 10 µM, and 5 µM of SB415826, a potent CK-1δ enzyme inhibitor, was employed as a positive control.

[3] = Microsomal (metabolic) stability; format: in vitro ADME; conditions: Wistar rat liver microsomes, with or without NADPH-generating system, 100 µM, up to 120 min
Method: Livers were obtained from male Wistar rats (250 and 300 g) from the Federal University of Ceara (UFC, Fortaleza, Brazil). The livers were maintained in an ice bath and washed with 3 volumes of 0.05 M Tris-HCl and 0.25 M sucrose, pH 7.4. They were then sliced and homogenized in a Potter–Elvehjem glass-Teflon homogenizer. The homogenates were centrifuged for 30 min at 900× g at 4 °C, and the supernatant fraction was centrifuged at 10,000× g for 1 h at 4 °C. The pellet was discarded, and the supernatant fraction was centrifuged at 100,000× g for 1 h at 4 °C. The microsomal fraction in the resulting pellet was recovered. The pellet was washed and resuspended twice in 0.05 M Tris-HCl, condensed into a pellet again by centrifugation for 1 h at 100,000× g at 4 °C and, finally, resuspended in the Tris-HCl buffer. Metabolic assays were carried out with frozen microsomes in Tris–HCl buffer, stored at –80 °C. […]
The final concentration of DMSO in the incubation mixture was 0.5%. […] The supernatant was analyzed by HPLC (acetonitrile/water 7:3 with 0.1% trifluoroacetic acid) using an internal standard (4-acetylbiphenyl—final concentration of 20 µM). […]

[4] = tested on: N-87, gastric carcinoma; assay: MTT cytotoxicity assay, N-87; conditions: Homo sapiens, 72 h, read-out: IC50 (95% CI) N-87
Method: The cytotoxicity of the compounds was determined using the MTT assay [13]. Cells were seeded in 96-well plates as follows: 0.7 × 10^5 cells/well for adherent cancer cells, 0.3 × 10^5 cells/well for suspended cancer cells, and 0.2 × 10^5 cells/well for HPBMCs. […] The control group was treated with the vehicle. […] After incubation, the supernatant was decanted and replaced with fresh medium containing MTT (0.5 mg/mL).
Data were presented as mean ± standard error of the mean (SEM) from three independent experiments performed in triplicate, calculated using Prism 8.0 (GraphPad/Intuitive Software for Science, San Diego, CA, USA). The IC50 of the compounds was obtained using a non-linear regression of the cytotoxicity curves.

human CK-1δ protein kinase, sequence (P48730 whole entry): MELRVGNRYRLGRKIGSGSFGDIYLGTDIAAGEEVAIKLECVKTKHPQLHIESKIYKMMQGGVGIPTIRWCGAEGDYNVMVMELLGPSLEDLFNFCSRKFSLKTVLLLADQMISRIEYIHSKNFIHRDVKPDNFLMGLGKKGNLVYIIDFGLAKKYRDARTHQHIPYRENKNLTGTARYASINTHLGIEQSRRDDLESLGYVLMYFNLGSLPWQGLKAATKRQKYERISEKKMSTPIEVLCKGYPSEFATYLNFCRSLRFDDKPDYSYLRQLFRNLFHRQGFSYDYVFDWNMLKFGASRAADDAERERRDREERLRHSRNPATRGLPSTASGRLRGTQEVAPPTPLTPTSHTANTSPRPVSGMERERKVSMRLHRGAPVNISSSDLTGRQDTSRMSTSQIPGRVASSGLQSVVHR
T1 sequence (P00533 25-1210): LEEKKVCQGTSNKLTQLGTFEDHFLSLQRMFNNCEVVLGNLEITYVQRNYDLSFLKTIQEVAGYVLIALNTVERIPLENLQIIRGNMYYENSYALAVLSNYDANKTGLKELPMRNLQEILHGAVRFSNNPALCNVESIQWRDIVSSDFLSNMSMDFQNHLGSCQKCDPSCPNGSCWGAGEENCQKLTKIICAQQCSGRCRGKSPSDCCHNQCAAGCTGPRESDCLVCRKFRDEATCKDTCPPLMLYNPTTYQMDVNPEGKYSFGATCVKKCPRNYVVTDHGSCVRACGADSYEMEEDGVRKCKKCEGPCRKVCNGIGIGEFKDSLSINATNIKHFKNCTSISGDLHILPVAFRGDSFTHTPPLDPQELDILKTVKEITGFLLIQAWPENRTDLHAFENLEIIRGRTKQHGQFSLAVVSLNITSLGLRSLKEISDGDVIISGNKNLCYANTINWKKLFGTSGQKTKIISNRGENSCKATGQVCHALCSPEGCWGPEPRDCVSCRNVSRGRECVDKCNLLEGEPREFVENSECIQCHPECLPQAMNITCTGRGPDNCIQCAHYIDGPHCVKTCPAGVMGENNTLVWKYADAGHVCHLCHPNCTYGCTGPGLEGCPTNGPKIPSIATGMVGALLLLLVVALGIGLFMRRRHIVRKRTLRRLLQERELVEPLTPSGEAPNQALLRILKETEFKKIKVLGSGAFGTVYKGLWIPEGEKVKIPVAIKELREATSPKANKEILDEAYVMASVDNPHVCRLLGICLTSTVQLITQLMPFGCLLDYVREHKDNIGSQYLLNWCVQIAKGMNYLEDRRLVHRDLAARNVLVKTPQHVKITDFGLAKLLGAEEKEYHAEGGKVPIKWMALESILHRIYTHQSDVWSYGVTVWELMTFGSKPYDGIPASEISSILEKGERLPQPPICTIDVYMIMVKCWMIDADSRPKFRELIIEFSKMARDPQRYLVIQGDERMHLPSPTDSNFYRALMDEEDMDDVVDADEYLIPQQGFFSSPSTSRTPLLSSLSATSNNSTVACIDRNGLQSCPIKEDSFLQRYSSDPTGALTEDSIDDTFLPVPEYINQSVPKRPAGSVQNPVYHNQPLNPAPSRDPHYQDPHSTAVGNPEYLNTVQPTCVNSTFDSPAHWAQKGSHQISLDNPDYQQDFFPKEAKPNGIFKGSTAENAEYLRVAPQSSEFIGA

COc1cc(C(=O)N/N=C/c2cc3ccccc3s2)cc(OC)c1OC [LASSBio-1920, (E)-N′-(Benzo[b]thiophen-2-ylmethylene)-3,4,5-trimethoxybenzohydrazide]
enzymatic inhibition of EGFR-wt [1]: less than 20% | inhibition at 10 µM [2]: < 10% | metabolic stability in liver microsomal fraction [3]: significantly metabolized by the microsomal fraction only in the presence of an NADPH-generating system | IC50 [4]: 440 nM
